{"source": "patent US20030207432A1", "about": "“Remedies for intractable wound” (Fujisawa Pharmaceutical Co., Ltd.,, priority 1999, published 2003)", "key": {"[1]": {"conditions": "qualitative, by solvent; known properties from earlier filings; cited from earlier work"}, "[2]": {"tested_on": "foot ulcer induced by acetic acid", "assay": "Foot ulcer induced by acetic acid, normal rats (applied FR136706)", "type": "in vivo, rat", "conditions": "for Ulcer area after administration of acetic acid / Swelling score after administration of acetic acid: normal rat, 0.2% in PEG400 applied, average, n=6; for Swelling score after administration of acetic acid: score 0-3", "protocol": "(§1) The action of the compound (applied) in accordance with this invention on a foot ulcer induced by acetic acid was examined by using normal and diabetic rats. Diabetes was induced in each of a seven-week-old male SD rats by intravenously administrating 60 mg/kg streptozotocin (STZ) to its tail. Fourteen days after the administration of STZ, 20 μl glacial acetic acid was administered into the skin of the left foot instep of each of the diabetic rats and control rats of the same age while anesthetized using ether, thereby causing necrosis at the portion. In the case when the necrotic cuticle of the skin remained two days after the necrosis, the cuticle was removed surgically. Then, the administration of FR136706 (0.2% solution in PEG (polyethylene glycol) 400) was started (50 μl to the affected portion). PEG400 was administered to the control group in a similar way. In a period between two days and 25 days after the administration of acetic acid, swelling scores (0: no swelling, 1: slight swelling, 2: intermediate swelling, 3: significant swelling) was checked visually, and the major axis length and the minor axis length of each ulcer was measured with vernier calipers. The area of each ulcer was calculated from the major axis length and the minor axis length thereof."}, "[3]": {"tested_on": "foot ulcer induced by acetic acid", "assay": "Diabetic rat foot ulcer curing action (STZ diabetic rats, foot ulcer induced by acetic acid)", "type": "in vivo", "conditions": "for Ulcer area after administration of acetic acid / Swelling score after administration of acetic acid: diabetic rat, 0.2% in PEG400 applied, average, n=6; for Swelling score after administration of acetic acid: score 0-3", "protocol": "as §1"}, "[4]": {"conditions": "normal rats, 0.2% solution in PEG400 applied"}, "[5]": {"conditions": "diabetic rats, 0.2% solution in PEG400 applied"}}, "note": "Entries after “also recorded” stand apart in the source; their conditions may differ.", "data": [{"molecule": "Dipotassium salt of the WS7622A disulfate ester", "values": [{"measurement": "Solubility", "setting": "[1]", "result": "soluble: water, methanol; also recorded: insoluble: chloroform, n-hexane"}]}, {"molecule": "CC(C)C(NC(=O)[C@@H]1CCCN1C(=O)[C@@H](NC(=O)c1ccc(C(=O)NCC(=O)[O-])cc1)C(C)C)C(=O)C(F)(F)F.[Na+]", "note": "(mixture of isomers) [FR136706, Sodium salt of 3(RS)-[[4-(carboxymethylaminocarbonyl)phenylcarbonyl]-L-valyl-L-prolyl]amino-1,1,1-trifluoro-4-methyl-2-oxopentane]", "values": [{"measurement": "Ulcer area after administration of acetic acid", "setting": "[2]; after 2 days", "result": 58.37, "unit": "mm^2"}, {"measurement": "Swelling score after administration of acetic acid", "setting": "[2]; after 2 days", "result": 2.5}, {"measurement": "Ulcer area after administration of acetic acid", "setting": "[2]; after 8 days", "result": 71.42, "unit": "mm^2"}, {"measurement": "Swelling score after administration of acetic acid", "setting": "[2]; after 8 days", "result": 2.0}, {"measurement": "Ulcer area after administration of acetic acid", "setting": "[2]; after 11 days", "result": 53.21, "unit": "mm^2"}, {"measurement": "Swelling score after administration of acetic acid", "setting": "[2]; after 11 days", "result": 1.5}, {"measurement": "Ulcer area after administration of acetic acid", "setting": "[2]; after 15 days", "result": 18.32, "unit": "mm^2"}, {"measurement": "Swelling score after administration of acetic acid", "setting": "[2]; after 15 days", "result": 1.0}, {"measurement": "Ulcer area after administration of acetic acid", "setting": "[2]; after 18 days", "result": 0.69, "unit": "mm^2"}, {"measurement": "Swelling score after administration of acetic acid", "setting": "[2]; after 18 days", "result": 0.5}, {"measurement": "Ulcer area after administration of acetic acid", "setting": "[2]; after 22 days", "result": 0.00, "unit": "mm^2"}, {"measurement": "Swelling score after administration of acetic acid", "setting": "[2]; after 22 days", "result": 0.0}, {"measurement": "Ulcer area after administration of acetic acid", "setting": "[2]; after 25 days", "result": 0.00, "unit": "mm^2"}, {"measurement": "Swelling score after administration of acetic acid", "setting": "[2]; after 25 days", "result": 0.0}, {"measurement": "Effect on contraction of ulcer areas (in words)", "setting": "[2]; [4]", "result": "did not act on the normal rats"}, {"measurement": "Effect on recovery of swelling scores (in words)", "setting": "[2]; [4]", "result": "did not act on the normal rats"}, {"measurement": "Ulcer area after administration of acetic acid", "setting": "[3]; after 2 days", "result": 69.17, "unit": "mm^2"}, {"measurement": "Swelling score after administration of acetic acid", "setting": "[3]; after 2 days", "result": 2.2}, {"measurement": "Ulcer area after administration of acetic acid", "setting": "[3]; after 8 days", "result": 91.77, "unit": "mm^2"}, {"measurement": "Swelling score after administration of acetic acid", "setting": "[3]; after 8 days", "result": 2.8}, {"measurement": "Ulcer area after administration of acetic acid", "setting": "[3]; after 11 days", "result": 72.38, "unit": "mm^2"}, {"measurement": "Swelling score after administration of acetic acid", "setting": "[3]; after 11 days", "result": 2.5}, {"measurement": "Ulcer area after administration of acetic acid", "setting": "[3]; after 15 days", "result": 41.00, "unit": "mm^2"}, {"measurement": "Swelling score after administration of acetic acid", "setting": "[3]; after 15 days", "result": 1.5}, {"measurement": "Ulcer area after administration of acetic acid", "setting": "[3]; after 18 days", "result": 16.10, "unit": "mm^2"}, {"measurement": "Swelling score after administration of acetic acid", "setting": "[3]; after 18 days", "result": 1.5}, {"measurement": "Ulcer area after administration of acetic acid", "setting": "[3]; after 22 days", "result": 12.08, "unit": "mm^2"}, {"measurement": "Swelling score after administration of acetic acid", "setting": "[3]; after 22 days", "result": 1.2}, {"measurement": "Ulcer area after administration of acetic acid", "setting": "[3]; after 25 days", "result": 6.99, "unit": "mm^2"}, {"measurement": "Swelling score after administration of acetic acid", "setting": "[3]; after 25 days, & significant at 5% vs PEG400 diabetic group", "result": 0.7}, {"measurement": "Effect on contraction of ulcer areas (in words)", "setting": "[3]; [5]", "result": "tended to promote the contraction of the ulcer areas of the diabetic rats"}, {"measurement": "Effect on recovery of swelling scores (in words)", "setting": "[3]; [5]", "result": "promoted the recovery of the diabetic rats"}]}, {"molecule": "Disodium salt of WS7622A disulfate ester", "values": [{"measurement": "Solubility", "setting": "[1]", "result": "soluble: water, methanol; also recorded: insoluble: chloroform, n-hexane"}]}]}
